Data reported in patent US7375105B2, “Pyridine substituted furan derivatives as Raf kinase inhibitors” (SmithKline Beecham p.l.c., priority 2001, dated 2008).

What was measured:
[1] = test system: Human diploid foreskin fibroblasts (HFF); test: XTT 72 hr growth inhibition (Assay 3), HFF; assay type: cell-based; details: Fibroblast, normal, B-Raf wt, Ras wt
Experimental: (§1) XTT 72 Hr Growth Inhibition Protocol for Mammalian Cultured Cells (Assay 3)
(§2) Human diploid foreskin fibroblasts (HFF) or human colon carcinoma (Colo 201) cells were grown in Dulbecco's modified Eagle's medium (DMEM) (Invitrogen/Life Technologies) containing 10% fetal bovine serum (FBS) and the antibiotics penicillin (100 Units/ml) and streotomycin (100 micrograms/ml) (Invitrogen/Life Technologies). Growth was at 37° C. in humidified 5% CO2 incubators in 75 cm^2 plastic flasks. Cells were harvested using 0.25% trypsin/1 mM ethylenediaminetetraacetic acid (EDTA), resuspended in growth medium, and counted using a hemocytometer. Flat-bottomed 96-well plates were seeded with 2×10^3 cells/well in a volume of 200 ul from trypsinized exponentially growing cultures. To “blank” wells, growth medium was added with no additions. Cells were incubated overnight to permit attachment.
(§3) Next day, medium from wells that contained cells was replaced with 180 microliters of fresh medium. Appropriate dilutions of test compounds were added to the wells from stock solutions of compound dissolved in dimethyl sulfoxide (DMSO); final DMSO concentration in all wells was 0.2%. […] Absorbance at 450 nm was then determined using a 96-well UV plate reader (Molecular Devices). Under these conditions, absorbance of untreated control cells at 450 nm was at least 1.0 optical density unit/ml. […]

[2] = test system: colon carcinoma (Colo 205); test: Methylene blue growth inhibition assay (Assay 2), Colo205; assay type: cell-based; details: Homo sapiens, colorectal cancer, B-Raf V599E, Ras wt
Experimental: (§4) Methylene Blue Growth Inhibition Assay (Assay 2)
(§5) Normal human foreskin fibroblasts (HFF), human melanoma (A375P, SKMEL2, SKMEL3) colon carcinoma (Colo 205) were cultured in the following growth media: A375P, Colo 205, Roswell Park Memorial Institute (RPMI) 1640 (Life Technologies 22400-089) containing 10% fetal bovine serum (FBS); HFF, Dulbecco's modified Eagle Medium (DMEM) (Life Technologies 12320-032) containing 10% FBS; SKMEL2 and SKMEL3, Minimum Essential Medium (MEM, Life Technologies 11095-080) containing 1× non-essential amino acids (Life Technologies 11140-050) and 10% FBS. Cells were harvested using 0.25% trypsin/1 mM, EDTA, counted using a haemocytometer, and plated in 100 microliters of the appropriate media, at the following densities, in a 96-well tissue culture plate (Falcon 3075): HFF and A375P, 5,000 cells/well; all other cell lines, 10,000 cells/well. The next day, compounds were diluted in RPMI containing 100 micrograms/ml gentamicin, at twice the final required concentration, from 10 mM stock solutions in dimethyl sulphoxide (DMSO). One hundred microliters per well of these dilutions were added to the 100 microliters of media currently on the cell plates. RPMI containing 0.6% DMSO was added to control wells. […] Optical density at 620 nm was measured on a microplate reader. Percent inhibition of cell growth was calculated relative to vehicle treated control wells. […]

human melanoma SKMEL3 = test: Methylene blue growth inhibition assay (Assay 2), SKMEL3; assay type: cell-based; details: SK-MEL3, B-Raf V599E, Ras wt
Experimental: as §4, §5

[3] = test system: human colon carcinoma (Colo 201) cells; test: XTT 72 hr growth inhibition (Assay 3), Colo201; assay type: cell-based; details: colorectal cancer, B-Raf ND, Ras ND
Experimental: as §1, §2, §3

human melanoma SKMEL2 = test: Methylene blue growth inhibition assay (Assay 2), SKMEL2; assay type: cell-based; details: SK-MEL-2, B-Raf wt, [Q61R]N-Ras
Experimental: as §4, §5

human melanoma A375P = test: Methylene blue growth inhibition assay (Assay 2), A375P; assay type: cell-based; details: B-Raf V599E, Ras wt
Experimental: as §4, §5

B-Raf = B-Raf (Homo sapiens, UniProt P15056); test: Fluorescence anisotropy kinase binding assay (Assay 1)
Text: Fluorescence Anisoptrophy Kinase Binding Assay
The concentration of kinase enzyme should preferably be >1×Kf. The concentration of fluorescent ligand required will depend on the instrumentation used, and the fluorescent and physicochemical properties. The concentration used must be lower than the concentration of kinase enzyme, and preferably less than half the kinase enzyme concentration. A typical protocol is:
All compounds are serially diluted in DMSO, then by a one step dilution into buffer of comparison, 50 mM HEPES, […] pH7.5, 1 mM CHAPS, 10 mM MgCL2, for the assay.
B-Raf Enzyme concentration: 1 nM
Fluorescent ligand concentration: 0.5 nM
Test compound concentration: 0.5 nM-100 uM
Components incubated in 10 ul final volume in LJL HE 384 type B black microtitre plate until equilibrium reached (Over 3 h, up to 30 h)
Fluorescence anisotropy read in an LJL Acquest fluorescence reader.
Definitions: Ki=dissociation constant for inhibitor binding
• Kf=dissociation constant for fluorescent ligand binding
The fluorescent ligand is the following compound:
which is derived from 5-[2-(4-aminomethylphenyl)-5-pyridin-4-yl-1H-imidazol-4-yl]-2-chlorophenol and rhodamine green.

B-Raf, sequence (P15056 whole entry): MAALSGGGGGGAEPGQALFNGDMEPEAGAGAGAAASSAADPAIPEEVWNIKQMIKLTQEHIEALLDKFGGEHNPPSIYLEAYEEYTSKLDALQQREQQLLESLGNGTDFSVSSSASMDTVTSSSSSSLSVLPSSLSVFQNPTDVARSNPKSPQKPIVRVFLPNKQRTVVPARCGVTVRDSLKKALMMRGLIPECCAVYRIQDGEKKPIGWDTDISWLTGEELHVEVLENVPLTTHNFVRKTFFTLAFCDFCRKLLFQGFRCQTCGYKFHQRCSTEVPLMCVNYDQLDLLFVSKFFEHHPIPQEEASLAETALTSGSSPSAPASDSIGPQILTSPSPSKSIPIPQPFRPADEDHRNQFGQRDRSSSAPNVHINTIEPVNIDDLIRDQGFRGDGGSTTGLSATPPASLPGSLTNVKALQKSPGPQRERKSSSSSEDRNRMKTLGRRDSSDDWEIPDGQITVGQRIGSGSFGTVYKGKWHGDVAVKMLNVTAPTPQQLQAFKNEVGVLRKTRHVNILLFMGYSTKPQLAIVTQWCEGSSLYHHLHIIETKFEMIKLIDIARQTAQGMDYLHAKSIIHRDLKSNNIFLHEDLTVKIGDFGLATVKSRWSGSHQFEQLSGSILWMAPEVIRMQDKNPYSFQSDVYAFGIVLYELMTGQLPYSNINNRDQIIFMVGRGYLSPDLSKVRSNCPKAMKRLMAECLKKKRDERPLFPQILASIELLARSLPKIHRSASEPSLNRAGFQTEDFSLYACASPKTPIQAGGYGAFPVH

- IC50 [2]: 7.9 µM
- IC50 (human melanoma SKMEL3): 1.4 µM
- IC50 [3]: 8.5 µM
- IC50 (human melanoma SKMEL2): 4.9 µM
- IC50 (human melanoma A375P): 1.8 µM
- Kd (B-Raf): 5.5 nM
Compound: CC(C)(CN)c1cc(-c2ccncc2)c(-c2ccc(Cl)c(O)c2)o1 [Example 3, 5-[5-(2-Amino-1,1-dimethyl-ethyl)-3-pyridin-4-yl-furan-2-yl]-2-chloro-phenol]
- IC50 [1]: 22 µM
